Patent publication US10981926B2 (Janssen Pharmaceutica NV, priority 2016, dated 2021)

Tests used:
[1] = biological target: GR (human) (Homo sapiens (Human), UniProt P04150); experiment: Radioligand binding to GR; conditions: [3H]dexamethasone, IM-9 cells (cytosol)
Method: Radioligand binding assays were performed with the cell extracts and ligands as detailed below. Complete methodology is contained within the cited publications. Kd values were determined by Non-Specific Incubation Detection Method.
GR (human) (agonist radioligand) IM-9 cells (cytosol)
[^3H]dexamethasone 1.5 nM 1.5 nM triamcinolone (10 μM) 6 h 4° C. Scintillation counting (Clark, A. F et al. (1996) Invest. Ophtalmol. Vis. Sci., 37: 805-813).
The results are expressed as a percent of control specific binding measured specific binding*100 control specific binding and as a percent inhibition of control specific binding 100-(measured specific binding*100) control specific binding obtained in the presence of compound.
The IC50 values (concentration causing a half-maximal inhibition of control specific binding) and Hill coefficients (nH) were determined by non-linear regression analysis of the competition curves generated with mean replicate values using Hill equation curve fitting. Y=D+[A−D] 1+(C/C50)nH […]
The inhibition constants (Ki) were calculated using the Cheng Prusoff equation: Ki=[…]
Radioligand binding inhibition and affinity calculations were determined using [^3H]-methyltrienolone, [^3H]-dexamethasone and [^3H]-estradiol for AR, GR and ER, respectively. […]

[2] = biological target: F876L-VP16 (Homo sapiens (Human), UniProt P10275, F877L); experiment: AR-VP16 DNA Binding Assay (VP16 F876L); type: cell-based; conditions: HepG2, antagonist mode, 1 nM R1881, 48 hours
Method: (§1) HepG2 cells were maintained in EMEM supplemented with 10% FBS. One day before transfection, the media was changed to EMEM with 10% CSS. T-150 flasks were transiently transfected using 120 μL Lipofectamine 2000 (Life Technologies), 24.5 μg AR-VP16 or F876L-VP16 (expression vector) and 49 μg 4×ARE-Luciferase (reporter vector) in OptiMEM and the flasks were incubated overnight. Cells were then trypsinized, counted and resuspended at 500,000 cells/mL. For agonist mode, the compounds were serially diluted and 50 μL of the compound was added per well. 50 μL of the cells were added to each well and incubated for 48 hours. For antagonist mode, a final concentration of 90 pM (VP16 AR) or 1 nM (VP16 F876L) R1881 was added to the plate and incubated for 48 hours. The plates were then assayed using SteadyGlo and read on the Envision. Percent Stimulation and Inhibition were determined and analyzed using GraphPad Prism.

[3] = biological target: AR-VP16 (Homo sapiens, UniProt P10275); experiment: AR-VP16 DNA Binding Assay (VP16 WT); type: cell-based; conditions: HepG2, antagonist mode, 90 pM R1881, 48 hours
Method: as §1

[4] = test system: LNCaP WT; experiment: LNCaP Proliferation Assay (LNCaP WT); type: cell-based; conditions: Homo sapiens, 96 h, 4 days, CellTiter-Glo, normalized to 0.1 nM R1881 stimulation
Method: LNCaP cells were expanded in RPMI 10% FBS in T150 flasks. The cells were dislodged with 0.25% Trypsin, washed in complete media, centrifuged (300 g, 3 min), and the supernatant aspirated. The cells were resuspended in RPMI phenol-red free media with 1% charcoal-stripped serum (CSS) and counted using a ViCELL (Beckman-Coulter). 7500 cells were added to each well of a white optical bottom 384-well plate and incubated for 2 days at 37° C. 5% CO2. Compound dilutions were prepared in RPMI CSS using 50 mM stock solutions and added to the cells either alone (agonist mode) or in combination with 0.1 nM R1881 (antagonist mode). The plates were incubated for 4 days, followed by addition of CellTiter-Glo Luminescent Cell Viability kit reagent (Promega). The plates were placed on a shaker at 3000 rpm for 10 minutes and then read on an EnVision plate reader (Perkin Elmer) using Luminescence assay default settings. The data was analyzed, normalized to 0.1 nM R1881 stimulation, and plotted in GraphPad Prism.

[5] = test system: LNCaP SRαF876L cells; experiment: Castrate Resistant Prostate Cancer Xenograft Study; type: in vivo, mouse; conditions: castrate SHO mice
Method: Castrate six to seven week old male SCID Hairless Outbred mice (SHO, Charles Rivers Laboratories) were used as the host strain for xenograft studies. LNCaP SRαF876L cells were cultured as 3-D spheroids and expanded prior to subcutaneous injection on the flank of the animals (supplied post castration). Briefly, 5 mls of cells in media+5 mls of cultrex were premixed prior to plating of 500 μl=2×10^5 cells per well of a 24-well plate. Plates were incubated @ 37° C. for 30 min before addition of complete media on top and returned to incubator for growth of 3-D colonies. After 7 days, media was removed, plates chilled and contents of each well, 500 μl cultrex and cells, injected into flank of a recipient mouse. Tumor volume (length×width2/2) was monitored weekly. When tumors reached an average volume of ˜200 mm^3, animals were randomized into treatment groups. During the treatment period tumor volume was monitored bi-weekly. At study end, tumor growth inhibition (TGI) was calculated: 100−(Treated/Control*100). At the termination of study tumors were collected and stored for further analyses.

Sequence of GR (human) (P04150 whole entry): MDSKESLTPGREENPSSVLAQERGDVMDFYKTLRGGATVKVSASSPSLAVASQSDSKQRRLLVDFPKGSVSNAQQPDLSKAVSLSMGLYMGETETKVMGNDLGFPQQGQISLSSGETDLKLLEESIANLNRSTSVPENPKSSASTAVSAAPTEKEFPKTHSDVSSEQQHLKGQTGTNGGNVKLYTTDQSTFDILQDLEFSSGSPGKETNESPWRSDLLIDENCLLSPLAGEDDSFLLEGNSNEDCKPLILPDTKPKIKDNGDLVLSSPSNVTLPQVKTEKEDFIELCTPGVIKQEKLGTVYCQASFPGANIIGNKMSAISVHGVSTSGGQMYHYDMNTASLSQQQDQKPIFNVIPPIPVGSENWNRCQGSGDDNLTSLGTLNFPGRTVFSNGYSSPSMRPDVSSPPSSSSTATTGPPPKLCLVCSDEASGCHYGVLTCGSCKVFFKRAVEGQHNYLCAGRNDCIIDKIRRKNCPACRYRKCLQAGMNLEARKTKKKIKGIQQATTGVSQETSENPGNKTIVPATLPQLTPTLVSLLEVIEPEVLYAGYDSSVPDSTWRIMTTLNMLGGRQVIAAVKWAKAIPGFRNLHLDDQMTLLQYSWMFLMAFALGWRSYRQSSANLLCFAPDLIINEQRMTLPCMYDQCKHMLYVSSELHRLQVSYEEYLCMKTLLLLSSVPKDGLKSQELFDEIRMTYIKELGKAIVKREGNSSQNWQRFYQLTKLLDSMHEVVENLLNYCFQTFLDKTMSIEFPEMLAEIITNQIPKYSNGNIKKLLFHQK
Sequence of F876L-VP16 (P10275 whole entry F877L): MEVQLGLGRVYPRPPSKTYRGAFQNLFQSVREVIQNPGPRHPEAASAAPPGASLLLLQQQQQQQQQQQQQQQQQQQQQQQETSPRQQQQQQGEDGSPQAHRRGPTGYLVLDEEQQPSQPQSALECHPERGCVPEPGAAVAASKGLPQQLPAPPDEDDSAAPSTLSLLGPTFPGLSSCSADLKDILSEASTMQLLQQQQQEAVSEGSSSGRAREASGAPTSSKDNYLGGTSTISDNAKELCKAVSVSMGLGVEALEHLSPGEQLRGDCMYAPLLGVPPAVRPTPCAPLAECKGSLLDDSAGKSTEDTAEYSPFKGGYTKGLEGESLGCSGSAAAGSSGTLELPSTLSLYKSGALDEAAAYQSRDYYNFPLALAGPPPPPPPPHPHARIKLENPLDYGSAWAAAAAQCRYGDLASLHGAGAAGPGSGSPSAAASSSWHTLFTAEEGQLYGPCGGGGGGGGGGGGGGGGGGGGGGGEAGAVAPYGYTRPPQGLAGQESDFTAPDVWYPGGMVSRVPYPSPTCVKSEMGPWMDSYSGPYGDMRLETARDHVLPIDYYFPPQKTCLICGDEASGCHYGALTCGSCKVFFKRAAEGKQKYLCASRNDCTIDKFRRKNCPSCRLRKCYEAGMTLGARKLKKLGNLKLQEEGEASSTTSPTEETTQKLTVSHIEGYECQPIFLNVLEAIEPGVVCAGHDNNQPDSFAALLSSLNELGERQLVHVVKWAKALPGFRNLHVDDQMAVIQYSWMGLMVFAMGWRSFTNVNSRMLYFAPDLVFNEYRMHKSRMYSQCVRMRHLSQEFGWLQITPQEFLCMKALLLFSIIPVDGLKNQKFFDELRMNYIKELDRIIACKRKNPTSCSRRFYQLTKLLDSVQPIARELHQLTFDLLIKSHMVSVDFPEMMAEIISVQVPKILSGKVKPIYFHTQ
Sequence of AR-VP16 (P10275 whole entry, looked up): as the sequence (P10275 whole entry F877L) above, with L877F counted along it

IC50 [1]: > 30000 nM | IC50 [2]: 15 nM | IC50 [3]: 7750 nM
SMILES: N#Cc1ncc(N2C(=O)C3(CCC3)N(c3ccc(OC4CCNCC4)nc3)C2=S)cc1C(F)(F)F [Cpd 43, 5-[5-oxo-8-[6-(4-piperidyloxy)-3-pyridyl]-7-thioxo-6,8-diazaspiro[3.4]octan-6-yl]-3-(trifluoromethyl)pyridine-2-carbonitrile]
IC50 [4]: 435 nM | TGI ([5]; 30 mg/kg): 91% (n = 9) | TGI ([5]; 50 mg/kg): 87% (n = 10)
